The text below walks through data of US10689366B2, “Compounds for MALT1 degredation” (Cornell University, priority 2016, dated 2020).

The first test addresses T1, MALT1 (Homo sapiens, UniProt Q9UDY8).
T1 sequence (Q9UDY8 1-824): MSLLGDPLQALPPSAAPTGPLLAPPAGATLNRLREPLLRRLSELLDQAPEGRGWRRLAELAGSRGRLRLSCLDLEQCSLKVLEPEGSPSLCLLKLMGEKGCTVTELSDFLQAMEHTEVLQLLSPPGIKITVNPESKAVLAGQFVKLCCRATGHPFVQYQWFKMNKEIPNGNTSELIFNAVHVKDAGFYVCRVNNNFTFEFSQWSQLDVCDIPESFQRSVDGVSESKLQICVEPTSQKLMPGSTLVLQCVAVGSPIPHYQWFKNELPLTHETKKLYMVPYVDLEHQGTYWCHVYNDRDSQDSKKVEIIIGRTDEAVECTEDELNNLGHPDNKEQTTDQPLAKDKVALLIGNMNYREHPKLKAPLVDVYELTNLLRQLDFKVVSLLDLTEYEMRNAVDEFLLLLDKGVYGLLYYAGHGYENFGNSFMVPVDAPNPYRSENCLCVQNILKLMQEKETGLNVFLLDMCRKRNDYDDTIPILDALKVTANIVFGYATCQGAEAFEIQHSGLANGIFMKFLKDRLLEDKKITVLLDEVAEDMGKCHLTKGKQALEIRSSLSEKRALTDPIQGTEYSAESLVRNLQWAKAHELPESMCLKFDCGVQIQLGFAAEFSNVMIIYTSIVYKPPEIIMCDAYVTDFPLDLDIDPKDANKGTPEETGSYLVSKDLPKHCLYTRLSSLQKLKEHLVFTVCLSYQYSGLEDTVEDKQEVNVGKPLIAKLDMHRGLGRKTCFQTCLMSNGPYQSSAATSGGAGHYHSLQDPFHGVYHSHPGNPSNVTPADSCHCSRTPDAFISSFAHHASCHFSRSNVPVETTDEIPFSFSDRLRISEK
In words: MALT1 degradation assay (Western blot) in OCI-Ly3 cells. It counts as cell-based. On the set-up: endogenous in cells; host or cells: OCI-Ly3. Particulars: 48 hours, normalized to Actin, relative to vehicle treated cells. Here is the method: In the experiments, OCI-Ly3 cells were grown for 6 hours in the presence of the indicated concentrations of Examples 1-6, 9, and 10. Proteins were extracted, analyzed by Western blot, and membranes were immunoblotted for MALT1, CRBN, and Actin. Table 3 provides the results of experimental data obtained from the example compounds of the present disclosure. In particular, OCI-Ly3 cells were grown for 48 hours in the presence of the indicated concentrations of Examples 1-19. Proteins were extracted, analyzed by Western blot, and membranes were immunoblotted for MALT1, CRBN, and Actin. Western blot bands were quantified using Image Lab software. Results were normalized to Actin expression and presented as % MALT1 degradation relative to vehicle treated cells.
For orientation: A western blot detects proteins with antibodies after separation by electrophoresis.
`CO[C@@H](C)c1c(NC(=O)Nc2cnc(-n3cc(CNC(=O)CCOCCOCCOCCOCCC(=O)N[C@H](C(=O)N4C[C@H](O)CC4C(=O)NCc4ccc(-c5scnc5C)cc4)C(C)(C)C)cn3)c(Cl)c2)cnc2cc(Cl)nn12` (stereo partly drawn) [Example 10]: the “% MALT1 degradation at 1 µM” value is given as “no degradation”.

As to `CO[C@@H](C)c1c(NC(=O)Nc2cc(Cl)cnc2OCCNC(=O)CCCCCCCCOc2cccc3c2C(=O)N(C2CCC(=O)NC2=O)C3=O)cnc2cc(Cl)nn12` (stereo partly drawn) [Example 16, N-(2-((5-Chloro-3-(3-(2-chloro-7-((S)-1-methoxyethyl)pyrazolo[1,5-a]pyrimidin-6-yl)ureido)pyridin-2-yl)oxy)ethyl)-9-((2-(2,6-dioxopiperidin-3-yl)-1,3-dioxoisoindolin-4-yl)oxy)nonanamide], the “% MALT1 degradation at 1 µM” value was “no degradation”.

For `CO[C@@H](C)c1c(NC(=O)Nc2cnc(-n3cc(CNC(=O)CCOCCOCCOCCN4CCN(Cc5ccc(COc6cccc7c6CN([C@H]6CCC(=O)NC6=O)C7=O)cc5)CC4)cn3)c(Cl)c2)cnc2cc(Cl)nn12` [Example 18, N-((1-(3-Chloro-5-(3-(2-chloro-7-((S)-1-methoxyethyl)pyrazolo[1,5-a]pyrimidin-6-yl)ureido)pyridin-2-yl)-1H-pyrazol-4-yl)methyl)-3-(2-(2-(2-(4-(4-(((2-((5)-2,6-dioxopiperidin-3-yl)-1-oxoisoindolin-4-yl)oxy)methyl)benzyl)piperazin-1-yl)ethoxy)ethoxy)ethoxy)propanamide], the “% MALT1 degradation at 1 µM” value is listed as greater than 50%.

The same test, now with this note: 48 hours, normalized to Actin, relative to vehicle treated cells, read-out: % MALT1 Degradation at 1 μM.
Consider `CO[C@@H](C)c1c(NC(=O)Nc2cnc(-n3cc(CNC(=O)CCOCCOCCNc4cccc5c4CN(C4CCC(=O)NC4=O)C5=O)cn3)c(Cl)c2)cnc2cc(Cl)nn12` (stereo partly drawn) [Example 5, N-((1-(3-Chloro-5-(3-(2-chloro-7-((S)-1-methoxyethyl)pyrazolo[1,5-a]pyrimidin-6-yl)ureido)pyridin-2-yl)-1H-pyrazol-4-yl)methyl)-3-(2-(2-((2-(2,6-dioxopiperidin-3-yl)-1-oxoisoindolin-4-yl)amino)ethoxy)ethoxy)propanamide], for which the % MALT1 degradation at 1 µM was in the range of 10 to 30%.

`CC(C)c1c(NC(=O)Nc2cnc(-n3cc(CNC(=O)CCOCCOCCNc4cccc5c4CN(C4CCC(=O)NC4=O)C5=O)cn3)c(Cl)c2)cnc2cc(Cl)nn12` (stereo not drawn) [Example 7, N-((1-(3-Chloro-5-(3-(2-chloro-7-isopropylpyrazolo[1,5-a]pyrimidin-6-yl)ureido)pyridin-2-yl)-1H-pyrazol-4-yl)methyl)-3-(2-(2-((2-(2,6-dioxopiperidin-3-yl)-1-oxoisoindolin-4-yl)amino)ethoxy)ethoxy)propanamide]: the % MALT1 degradation at 1 µM lay within 31 to 50%.

For the compound `C[C@@H](c1c(NC(=O)Nc2cnc(-n3nccn3)c(Cl)c2)cnc2cc(Cl)nn12)N(C)C(=O)CCOCCOCCNc1cccc2c1CN(C1CCC(=O)NC1=O)C2=O` (stereo partly drawn) [Example 4, N—((S)-1-(2-Chloro-6-(3-(5-chloro-6-(2H-1,2,3-triazol-2-yl)pyridin-3-yl)ureido)pyrazolo[1,5-a]pyrimidin-7-yl)ethyl)-3-(2-(2-((2-(2,6-dioxopiperidin-3-yl)-1-oxoisoindolin-4-yl)amino)ethoxy)ethoxy)-N-methylpropanamide], the % MALT1 degradation at 1 µM was 31 to 50%.

On to `CO[C@@H](C)c1c(NC(=O)Nc2cc(Cl)cnc2OCCNC(=O)CCOCCOCCNc2cccc3c2C(=O)N(C2CCC(=O)NC2=O)C3=O)cnc2cc(Cl)nn12` (stereo partly drawn) [Example 14, N-(2-((5-Chloro-3-(3-(2-chloro-7-((S)-1-methoxyethyl)pyrazolo[1,5-a]pyrimidin-6-yl)ureido)pyridin-2-yl)oxy)ethyl)-3-(2-(2-((2-(2,6-dioxopiperidin-3-yl)-1,3-dioxoisoindolin-4-yl)amino)ethoxy)ethoxy)propanamide], for which the % MALT1 degradation at 1 µM is greater than 50%.

On to `CO[C@@H](C)c1c(NC(=O)Nc2cc(Cl)cnc2OCCNC(=O)CCOCCOCCOCCN2CCN(Cc3ccc(COc4cccc5c4CN([C@H]4CCC(=O)NC4=O)C5=O)cc3)CC2)cnc2cc(Cl)nn12` [Example 19, N-(2-((5-Chloro-3-(3-(2-chloro-7-((S)-1-methoxyethyl)pyrazolo[1,5-a]pyrimidin-6-yl)ureido)pyridin-2-yl)oxy)ethyl)-3-(2-(2-(2-(4-(4-(((2-((S)-2,6-dioxopiperidin-3-yl)-1-oxoisoindolin-4-yl)oxy)methyl)benzyl)piperazin-1-yl)ethoxy)ethoxy)ethoxy)propanamide], for which the % MALT1 degradation at 1 µM was greater than 50%.

For `CO[C@@H](C)c1c(NC(=O)Nc2cc(Cl)cnc2OCCNC(=O)CCOCCNc2cccc3c2CN(C2CCC(=O)NC2=O)C3=O)cnc2cc(Cl)nn12` (stereo partly drawn) [Example 12, N-(2-((5-Chloro-3-(3-(2-chloro-7-((S)-1-methoxyethyl)pyrazolo[1,5-a]pyrimidin-6-yl)ureido)pyridin-2-yl)oxy)ethyl)-3-(2-((2-(2,6-dioxopiperidin-3-yl)-1-oxoisoindolin-4-yl)amino)ethoxy)piopanamide], the % MALT1 degradation at 1 µM was in the range of 31 to 50%.

Regarding `CO[C@@H](C)c1c(NC(=O)Nc2cc(Cl)cnc2OCCNC(=O)CCOCCOCCNc2cccc3c2CN(C2CCC(=O)NC2=O)C3=O)cnc2cc(Cl)nn12` (stereo partly drawn) [Example 6, N-(2-((5-Chloro-3-(3-(2-chloro-7-((S)-1-methoxyethyl)pyrazolo[1,5-a]pyrimidin-6-yl)ureido)pyridin-2-yl)oxy)ethyl)-3-(2-(2-((2-(2,6-dioxopiperidin-3-yl)-1-oxoisoindolin-4-yl)amino)ethoxy)ethoxy)propanamide], the % MALT1 degradation at 1 µM is greater than 50%.

Take `CO[C@@H](C)c1c(NC(=O)Nc2cc(Cl)cnc2OCCNC(=O)CCOCCOCCOCCOCCNc2cccc3c2CN(C2CCC(=O)NC2=O)C3=O)cnc2cc(Cl)nn12` (stereo partly drawn) [Example 11, N-(2-((5-Chloro-3-(3-(2-chloro-7-((S)-1-methoxyethyl)pyrazolo[1,5-a]pyrimidin-6-yl)ureido)pyridin-2-yl)oxy)ethyl)-1-((2-(2,6-dioxopiperidin-3-yl)-1-oxoisoindolin-4-yl)amino)-3,6,9,12-tetraoxapentadecan-15-amide]: the % MALT1 degradation at 1 µM was greater than 50%.

As for `CO[C@@H](C)c1c(NC(=O)Nc2cc(Cl)cnc2OCCNC(=O)CCOCCOCCOCCOCCOCCOCCNc2cccc3c2C(=O)N(C2CCC(=O)NC2=O)C3=O)cnc2cc(Cl)nn12` (stereo partly drawn) [Example 15, N-(2-((5-Chloro-3-(3-(2-chloro-7-((S)-1-methoxyethyl)pyrazolo[1,5-a]pyrimidin-6-yl)ureido)pyridin-2-yl)oxy)ethyl)-1-((2-(2,6-dioxopiperidin-3-yl)-1,3-dioxoisoindolin-4-yl)amino)-3,6,9,12,15,18-hexaoxahenicosan-21-amide], the % MALT1 degradation at 1 µM is greater than 50%.

In the case of `Cc1c(NC(=O)Nc2cnc(-n3cc(CNC(=O)CCOCCOCCNc4cccc5c4CN(C4CCC(=O)NC4=O)C5=O)cn3)c(Cl)c2)cnc2ccc(Br)cc12` (stereo not drawn) [Example 8, N-((1-(5-(3-(6-Bromo-4-methylquinolin-3-yl)ureido)-3-chloropyridin-2-yl)-1H-pyrazol-4-yl)methyl)-3-(2-(2-((2-(2,6-dioxopiperidin-3-yl)-1-oxoisoindolin-4-yl)amino)ethoxy)ethoxy)propanamide], the % MALT1 degradation at 1 µM lay in the range of 31 to 50%.

`CO[C@@H](C)c1c(NC(=O)Nc2cc(Cl)cnc2OCCNC(=O)CCOCCOCCOCCOCCC(=O)N[C@H](C(=O)N2C[C@H](O)CC2C(=O)NCc2ccc(-c3scnc3C)cc2)C(C)(C)C)cnc2cc(Cl)nn12` (stereo partly drawn) [Example 9, N^1-(2-((5-Chloro-3-(3-(2-chloro-7-((S)-1-methoxyethyl)pyrazolo[1,5-a]pyrimidin-6-yl)ureido)pyridin-2-yl)oxy)ethyl)-N^16-((2S)-1-((4R)-4-hydroxy-2-((4-(4-methylthiazol-5-yl)benzyl)carbamoyl)pyrrolidin-1-yl)-3,3-dimethyl-1-oxobutan-2-yl)-4,7,10,13-tetraoxahexadecanediamide]: the % MALT1 degradation at 1 µM lay within 10 to 30%.

As for `CO[C@@H](C)c1c(NC(=O)Nc2cc(Cl)cnc2OCCNC(=O)CCOCCOCCOCCOCCNc2cccc3c2C(=O)N(C2CCC(=O)NC2=O)C3=O)cnc2cc(Cl)nn12` (stereo partly drawn) [Example 3, N-(2-((5-Chloro-3-(3-(2-chloro-7-((S)-1-methoxyethyl)pyrazolo[1,5-a]pyrimidin-6-yl)ureido)pyridin-2-yl)oxy)ethyl)-1-((2-(2,6-dioxopiperidin-3-yl)-1,3-dioxoisoindolin-4-yl)amino)-3,6,9,12-tetraoxapentadecan-15-amide], the % MALT1 degradation at 1 µM is greater than 50%.
